“And” between values parts separate entries of the source, which are not always exact repeats. Equal values may be shown once.
Columns and labels:
NASH mice = test: STAM mouse model of Non-alcoholic Steatohepatitis, anti-NASH/fibrosis effects, week 9; format: in vivo
Protocol: NASH was induced in male mice by a single injection of […] streptozotocin 2 days after birth (causing impaired glucose control), followed by a high fat diet from 4 weeks of age. […] Animals were sacrificed at 9 weeks of age, and biochemical, gene expression, and histologic evaluations of the liver were conducted.
This in vivo efficacy study was performed to examine the effects of Cenicriviroc in the STAM™ mouse model of Non-alcoholic Steatohepatitis.

HIV-1 = test: Study 202 Phase 2b, virologic response (HIV-1 RNA <50 copies/mL, FDA Snapshot), with FTC/TDF
Description: Subjects with a history of HIV-2, hepatitis B and/or C, cirrhosis of the liver or any known active or chronic active liver disease were excluded from the study.
The primary efficacy endpoint was virologic response at Week 24, defined as HIV-1 RNA <50 copies/mL using the FDA Snapshot Algorithm.

[1] = Study 202 treatment-emergent laboratory abnormalities (DAIDS grade); format: in vivo, human
Description: The 12th subject (Subject 42001) had 2 consecutive CPK elevations (Grade 3 followed by Grade 4) that returned to normal values while continuing treatment at a subsequent visit. None of the CPK elevations were associated with clinical symptoms; no subjects discontinued due to CPK elevations and there were no differences in AEs related to musculoskeletal disorders between the CVC and EFV arms.
The number of subjects with graded treatment-emergent laboratory abnormalities in selected liver parameters of interest is shown in Table 34. No Grade 4 ALT or AST elevations were observed. Except for one Grade 3 AST elevation, all ALT and AST elevations were Grade 1 or Grade 2. […] All abnormalities in bilirubin were Grade 1 or Grade 2. […]

[2] = CVC-high 100 mg/kg/day, week 9, listed as Cenicriviroc
[3] = CVC-low 20 mg/kg/day, week 9, listed as Cenicriviroc
[4] = All CVC (N = 115), EFV (N = 28)
[5] = All CVC (N = 115), EFV (N = 28), through Week 48

SMILES: CCCCOCCOc1ccc(-c2ccc3c(c2)/C=C(/C(=O)Nc2ccc([S@@+]([O-])Cc4cncn4CCC)cc2)CCCN3CC(C)C)cc1 [CVC, (S)-8-[4-(2-Butoxyethoxy)phenyl]-1-isobutyl-N-(4-{[(1-propyl-1H-imidazol-5-yl)methyl]sulfinyl}phenyl)-1,2,3,4-tetrahydro-1-benzazocine-5-carboxamide]
- decrease of collagen type 1 mRNA in whole liver lysates (NASH mice; 20 and 100 mg/kg/day, week 9): 27-37%
- Body weight (NASH mice; CVC-high 100 mg/kg/day, week 9): 18.7 ± 0.9 g
- Modified Sirius red-positive area (perivascular space subtracted) (NASH mice; CVC-high 100 mg/kg/day, week 9): 0.20% and 0.20±0.06%
- Plasma MCP-1 (NASH mice; CVC-high 100 mg/kg/day, week 9): 91 ± 14 pg/mL
- Body weight (NASH mice; [2]): 18.7 ± 0.9 g
- Modified Sirius red-positive area (perivascular space subtracted) (NASH mice; [2]): 0.20 ± 0.06%
- Plasma MCP-1 (NASH mice; [2]): 91 ± 14 pg/mL
- Hepatocyte ballooning score 0, number of mice (NASH mice; CVC-high, week 9, n = 6): 1
- Hepatocyte ballooning score 1, number of mice (NASH mice; CVC-high, week 9, n = 6): 2
- Hepatocyte ballooning score 2, number of mice (NASH mice; CVC-high, week 9, n = 6): 3
- Lobular inflammation score 1, number of mice (NASH mice; CVC-high, week 9, n = 6): 3
- Lobular inflammation score 2, number of mice (NASH mice; CVC-high, week 9, n = 6): 3
- Steatosis score 0, number of mice (NASH mice; CVC-high, week 9, n = 6): 1
- Steatosis score 1, number of mice (NASH mice; CVC-high, week 9, n = 6): 5
- Body weight (NASH mice; CVC-low 20 mg/kg/day, week 9): 19.5 ± 2.0 g
- Liver hydroxyproline (μg/mg total protein) (NASH mice; CVC-low 20 mg/kg/day, week 9): 0.63±0.05 μg/mg total protein
- Modified Sirius red-positive area (perivascular space subtracted) (NASH mice; CVC-low 20 mg/kg/day, week 9): 0.29% and 0.29±0.14%
- Plasma ALT (U/L) (NASH mice; CVC-low 20 mg/kg/day, week 9): 58±12 U/L
- Plasma MCP-1 (NASH mice; CVC-low 20 mg/kg/day, week 9): 68 ± 16 pg/mL
- Plasma MIP-1β (NASH mice; CVC-low 20 mg/kg/day, week 9): 18 ± 2 pg/mL
- Body weight (NASH mice; [3]): 19.5 ± 2.0 g
- Liver hydroxyproline (μg/mg total protein) (NASH mice; [3]): 0.63 ± 0.05 μg/mg total protein
- Modified Sirius red-positive area (perivascular space subtracted) (NASH mice; [3]): 0.29 ± 0.14%
- Plasma ALT (U/L) (NASH mice; [3]): 58 ± 12 U/L
- Plasma MCP-1 (NASH mice; [3]): 68 ± 16 pg/mL
- Plasma MIP-1β (NASH mice; [3]): 18 ± 2 pg/mL
- Hepatocyte ballooning score 1, number of mice (NASH mice; CVC-low, week 9, n = 6): 3
- Hepatocyte ballooning score 2, number of mice (NASH mice; CVC-low, week 9, n = 6): 3
- Lobular inflammation score 1, number of mice (NASH mice; CVC-low, week 9, n = 6): 3
- Lobular inflammation score 2, number of mice (NASH mice; CVC-low, week 9, n = 6): 3
- Steatosis score 1, number of mice (NASH mice; CVC-low, week 9, n = 6): 6
- Modified positive area (%), per mouse (NASH mice; Cenicriviroc-high, individual mice 301-306): 0.20%
- Modified positive area (%), per photo (NASH mice; Cenicriviroc-high, individual mice 301-306, photos 1-5): 0.41% and 0.09% (2×) and 0.23% (2×) and 0.17% (2×) and 0.28% (2×) and 0.22% (2×) and 0.08% (3×) and 0.05% and 0.32% and 0.07% (3×) and 0.16% and 0.20% (2×) and 0.68% and 0.27% and 0.12% and 0.11% and 0.67% and 0.26% and 0.06% and 0.10%
- Liver hydroxyproline (μg/mg total protein) (NASH mice; week 9): 0.62±0.09 μg/mg total protein
- Plasma ALT (U/L) (NASH mice; week 9): 51±13 U/L and 52±13 U/L
- Plasma MIP-1β (NASH mice; week 9): 20 ± 4 pg/mL
- Liver hydroxyproline (μg/mg total protein) (NASH mice; week 9, listed as Cenicriviroc): 0.62 ± 0.09 μg/mg total protein
- Plasma ALT (U/L) (NASH mice; week 9, listed as Cenicriviroc): 52 ± 13 U/L
- Plasma MIP-1β (NASH mice; week 9, listed as Cenicriviroc): 20 ± 4 pg/mL
- subjects who prematurely discontinued the study (HIV-1; CVC 100 mg arm): 29%
- subjects with virologic success (HIV-1 RNA <50 copies/mL) (HIV-1; CVC 100 mg, Week 24): 76%
- subjects with virologic success (HIV-1 RNA <50 copies/mL) (HIV-1; CVC 100 mg, Week 48): 68%
- subjects who prematurely discontinued the study (HIV-1; CVC 200 mg arm): 27%
- subjects with virologic success (HIV-1 RNA <50 copies/mL) (HIV-1; CVC 200 mg, Week 24): 73%
- subjects with virologic success (HIV-1 RNA <50 copies/mL) (HIV-1; CVC 200 mg, Week 48): 64%
- Any graded (Grade 1-4) laboratory abnormality, % ([1]; All CVC): 92%
- Worst Grade 1 laboratory abnormality, % ([1]; All CVC): 32%
- Worst Grade 2 laboratory abnormality, % ([1]; All CVC): 43%
- Worst Grade 3 laboratory abnormality, % ([1]; All CVC): 11%
- Worst Grade 4 laboratory abnormality, % ([1]; All CVC): 5%
- ALT abnormality, worst Grade 1 [1, 4]: 10 (9%) n (%)
- ALT abnormality, worst Grade 2 [1, 4]: 5 (4%) n (%)
- ALT abnormality, worst Grade 3 [1, 4]: 0 n (%)
- ALT abnormality, worst Grade 4 [1, 4]: 0 n (%)
- AST abnormality, worst Grade 1 [1, 4]: 14 (12%) n (%)
- AST abnormality, worst Grade 2 [1, 4]: 6 (5%) n (%)
- AST abnormality, worst Grade 3 [1, 4]: 1 (< %) n (%)
- AST abnormality, worst Grade 4 [1, 4]: 0 n (%)
- Alanine aminotransferase (ALT) abnormality, any worst grade [1, 4]: 15 (13%) n (%)
- Aspartate aminotransferase (AST) abnormality, any worst grade [1, 4]: 21 (18%) n (%)
- Bilirubin abnormality, any worst grade [1, 4]: 7 (6%) n (%)
- Bilirubin abnormality, worst Grade 1 [1, 4]: 3 (3%) n (%)
- Bilirubin abnormality, worst Grade 2 [1, 4]: 4 (3%) n (%)
- Bilirubin abnormality, worst Grade 3 [1, 4]: 0 n (%)
- Bilirubin abnormality, worst Grade 4 [1, 4]: 0 n (%)
- AST increased, Grade 3 [1, 5]: 1 (<1%) n (%)
- AST increased, Grade 4 [1, 5]: 0 n (%)
- Any Grade 3 laboratory abnormality [1, 5]: 13 (11%) n (%)
- Any Grade 3 or Grade 4 laboratory abnormality [1, 5]: 19 (17%) n (%)
- Any Grade 4 laboratory abnormality [1, 5]: 6 (5%) n (%)
- Aspartate aminotransferase (AST) increased (Grade 3 or 4) [1, 5]: 1 (<1%) n (%)
- CPK increased, Grade 3 [1, 5]: 8 (7%) n (%)
- CPK increased, Grade 4 [1, 5]: 4 (3%) n (%)
- Creatine phosphokinase (CPK) increased (Grade 3 or 4) [1, 5]: 12 (10%) n (%)
- Fibrinogen decreased (Grade 3 or 4) [1, 5]: 2 (2%) n (%)
- Fibrinogen decreased, Grade 3 [1, 5]: 2 (2%) n (%)
- Fibrinogen decreased, Grade 4 [1, 5]: 0 n (%)
- Hemoglobin decreased (Grade 3 or 4) [1, 5]: 1 (<1%) n (%)
- Hemoglobin decreased, Grade 3 [1, 5]: 0 n (%)
- Hemoglobin decreased, Grade 4 [1, 5]: 1 (<1%) n (%)
- Neutrophils decreased (Grade 3 or 4) [1, 5]: 2 (2%) n (%)
- Neutrophils decreased, Grade 3 [1, 5]: 2 (2%) n (%)
- Neutrophils decreased, Grade 4 [1, 5]: 0 n (%)
- Phosphate decreased (Grade 3 or 4) [1, 5]: 4 (3%) n (%)

— US20200368247A1, “CENICRIVIROC FOR THE TREATMENT OF FIBROSIS” (Tobira Therapeutics, Inc., priority 2014, published 2020)
